Reference: patent publication US20240199590A1, “SOLID FORMS OF A SGC ACTIVATOR” (Boehringer Ingelheim International GmbH, priority 2022, published 2024)

Assays:
Assay type in all cases: physicochemical
[1] = Storage stability of samples of Form I at controlled temperature and relative humidity
Procedure: Samples of Form I were maintained for at least 9 months at 25°, and 60% and at least 6 months at 40° and 75% relative humidity.

[2] = Solid form stability (tendency to convert to a different solid form, high RH)
Procedure: (§1) Water sorption isotherms are determined using a dynamic vapor sorption system (Advantage 1, DVS, London, UKDVS Intrinsic Plus, Surface Measurement Systems, Allentown, PA).
(§2) Approximately 5-10 mg of solid is weighed into a tared aluminum pan. The samples are subjected to 0 to 90% RH stepwise with a step size of […] at 25° C. Equilibration criteria are dm/dt of 0.002% over 5 minutes or 360 minutes at a specified % RH. Each sample is equilibrated at each RH step for at least 60 min, and equilibrium is assumed if weight increase is less than 0.1% within one minute, and the maximum duration on each RH is 6 hours. Therefore, each sample is held at a given RH for 1 to 6 hours depending on how fast the equilibrium is reached
The amorphous of Compound 1 (10 mg) is added to a pan for Dynamic Vapor Sorption analysis. The solid is exposed stepwise from 40 to 95 to 0 to 95 to 0% RH at 25° C. Form III is isolated after completing the stepwise exposures.

[3] = Hygroscopicity (water sorption, dynamic vapor sorption); settings: compared to the anhydrate (Form I) and monohydrate forms (Form III, Form V)
Procedure: as §1, §2

[4] = at least 6 months at 40° and 75% relative humidity
[5] = at least 9 months at 25°, and 60%

## CCOc1c(C(=O)O)cnn1-c1cccc(-c2cccc(C)c2OCc2ccc3c(c2C)CCN(C2CCOCC2)C3)n1 [Form I]
[1]; [4]
  change in particle sized distribution on storage: no change in particle sized distribution
  changes in Raman spectra on storage: no
  increase in impurity levels on storage: no increase in impurity levels
  increase in water content on storage: no increase in water content
[1]; [5]
  change in particle sized distribution on storage: no change in particle sized distribution
  changes in Raman spectra on storage: no
  increase in impurity levels on storage: no increase in impurity levels
  increase in water content on storage: no increase in water content
[2]; compared to the amorphous form
  stability as compared to the amorphous form of Compound 1: improved stability

## CCOc1c(C(=O)O)cnn1-c1cccc(-c2cccc(C)c2OCc2ccc3c(c2C)CCN(C2CCOCC2)C3)n1 [amorphous form of Compound 1]
[3]
  hygroscopicity: higher hygroscopicity
[2]; high RH, converting to Form III
  stability of the solid form under high RH: not stable
